Experimental data taken from patent publication US20050148254A1, “Light-activated biocidal polyelectrolytes” (priority 2003, published 2005).

Tested on: Bacillus anthracis spores
Assay type: cell-based, Bacillus anthracis (Sterne)

SMILES | reduction in survival for B. anthracis | inhibition of B. anthracis survival | % killing [%] | Spore colonies | reduction in bacterial survival | reduction of bacterial survival
O=C1OC2(c3cc(I)c(O)c(I)c3Oc3c2cc(I)c(O)c3I)c2c(Cl)c(Cl)c(Cl)c(Cl)c21 [RBL, Rose Bengal lactone] | approximately 40% | – | – | – | – | –
CN(C)c1ccc2nc3ccc(=[N+](C)C)cc-3sc2c1 [MB, methylene blue] | 75% | no inhibition | – | – | – | –
CCCCCCCCCCCC[N+](C)(C)C.[Br-] [DTAB, dodecyltrimethylammonium bromide] | – | – | 40 | 84 ± 4 | approximately 40% | approximately 40%
